Structures can show the parent of a compound that is named as a salt.
Assays:
[1] = cited from earlier work
[2] = tested on: virus Herpès simplex type I; experiment: In vivo cutaneous HSV I infection in guinea pigs, local application; design: species or system cobayes albinos (Dunkin-Hartley, IFFA-CREDO); conditions: for infection herpétique cutanée / lésions cutanées: cobayes, application locale deux fois par jour pendant 3 jours, observations jours 5 à 8; for % moyen d'activité: moyenne entre le jour 5 et le jour 8
Protocol: L'expérimentation a été réalisée en application locale sur des cobayes albinos (Dunkin-Hartley, IFFA-CREDO) auxquels on a préalablement inoculé par scarification le virus Herpès simplex type I. Sur ces scarifications, on a appliqué 0,1 ml d'une solution de virus HSV I titrant 10 000 DI50 pour 100 µl. Un flanc des animaux a servi de témoin. Le traitement a été effectué deux fois par jour pendant 3 jours, la première application ayant lieu 18 h après l'inoculation.
Les paramètres retenus pour déterminer la gravité des lésions cutanées sont : érythèmes, indurations, nombre et taille des vésicules, aires d'infection et présence ou absence de virus. Les observations sont réalisées 5, 6, 7 et 8 jours après l'inoculation.

virus HSV I [3] = experiment: Anti-viral activity in HSV I-inoculated embryonic lung fibroblast culture; type: cell-based; conditions: HSV I 100 DE50 pour 10 µl, fibroblastes de poumon embryonnaire MCR5, observation 24h et 48h; "-" = absence d'activité
Protocol: (§1) Dans un premier temps, on a donc déterminé l'activité virucide des différents composés testés par mise en contact du virus avec ces composés. Puis on a déterminé l'activité anti-virale des composés testés en inoculant le virus (sous la forme d'une suspension préalablement diluée dans du milieu de Hanks de manière à avoir une concentration en virus de 100 DE50 pour 10 µl de suspension) à une culture de fibroblastes de poumon embryonnaire (cellules commercialisées par la société Bio-Mérieux sous la référence MCR5), puis en traitant la culture cellulaire, inoculée par le virus, par les composés à tester, dilués également dans du milieu de Hanks. Les plaques de cultures cellulaires ont ensuite été observées au microscope inversé après 24h et 48h d'inoculation, ainsi que des cultures témoins non-inoculées et des virus témoins incubés sans composés. Les résultats sont rassemblés dans le tableau suivant: […]

zonas = experiment: Human clinical use in zona; type: in vivo; conditions: clinique humaine
[4] = tested on: infections herpétiques buccales et vulvaires; experiment: Human clinical use in buccal and vulvar herpetic infections; type: in vivo, humaine
virus HSV I [5] = experiment: Virucidal activity by contact of the virus with the compounds, infra-cytotoxic doses; type: cell-based; conditions: doses infra-cytotoxiques, "-" = absence d'activité
Protocol: as §1

## Oc1cccc2cccnc12 [8-HQS, sulfate d'hydroxy-8 quinoléine]
[1]
  solubilité dans l'alcool: faiblement soluble
  solubilité dans l'eau: soluble
  solubilité dans l'éther: insoluble
[2]
  infection herpétique cutanée / lésions cutanées: aucun effet
[2]; concentration 0,2 %
  % moyen d'activité: 0,0%

## Nc1nc2c(ncn2COCCO)c(=O)[nH]1 [Acyclovir, 2-amino-1,9-dihydro-9-[(2-hydroxyethoxy)methyl]-6H-purin-6-one]
[2]; concentration 1,0 %
  % moyen d'activité: 55,2%

## acriflavine [ACF]
[1]
  solubilité dans l'alcool: partiellement soluble
  solubilité dans l'eau: soluble
  solubilité dans l'éther: pratiquement insoluble
Virus HSV I [3]
  Concentrations minimales activité anti-virale: 2 µg/mL
zonas
  éruptions vésiculeuses et névralgies des territoires cutanés infectés: réduit significativement
[4]
  résultats en clinique humaine: résultats favorables
Virus HSV I [5]
  Concentrations minimales activité virucide: 1 µg/mL
[2]
  infection herpétique cutanée / lésions cutanées: réduisent significativement
[2]; concentration 0,2 %
  % moyen d'activité: 0,0%
[2]; concentration 1,0 %
  % moyen d'activité: 44,5%
[2]; concentration 2,0 %
  % moyen d'activité: 81,5%
[2]; concentration 4,0 %
  % moyen d'activité: 95,2%
